Like-named read-outs stand apart in the source and are kept apart here.
Experiments:
[1] = tested on: MV4:11 human cancer cell lines; experiment: Anti-proliferative activity, CellTiter-Glo viability assay, 7 day protocol; type: cell-based; conditions: MV4:11 cells, 7 day incubation, read-out: GI50 on cellular proliferation of MV4:11 human cancer cell lines
Method in brief: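 Luminescent CellTiter-Glo readout after 7-day compound exposure of MV4:11 cells plated at 3600 cells/ml (final DMSO 0.1%). GI50 derived from three biological × three technical replicates, reported as mean ± S.E.M.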

WDR5 = WDR5 (Homo sapiens (Human), UniProt P61964); experiment: TR-FRET binding assay (displacement of 10mer-Thr-FAM probe from WDR5)
[2] = read-out: Ki for Inhibition of WDR5 by TR-FRET assay
[3] = read-out: Ki for Inhibition of WDR5 by TR-FRET assay, TR-FRET, 10mer-Thr-FAM probe, WDR5-His tag 2 nM, pH 7.0

COc1cc(CNC(=O)c2cc(Cn3ccn(C)c3=N)cc(-c3ncc(F)cc3C)c2)cc(OC)c1 [Example 67, N-(3,5-Dimethoxybenzyl)-3-(5-fluoro-3-methylpyridin-2-yl)-5-((2-imino-3-methyl-2,3-dihydro-1H-imidazol-1-yl)methyl)benzamide]
GI50 ([1]; Homo sapiens, MV4-11, 168 h): 3800 nM | Ki (WDR5; [2]): 3.9 nM

Cc1ccnc(C(NC(=O)c2cc(Cn3ccn(C)c3=N)cc(-c3ccc(F)cc3C)c2)C2CC2)c1 (centres unmarked) [Example 9, N-(Cyclopropyl(4-methylpyridin-2-yl)methyl)-4′-fluoro-5-((2-imino-3-methyl-2,3-dihydro-1H-imidazol-1-yl)methyl)-2′-methyl-[1,1′-biphenyl]-3-carboxamide]
GI50 ([1]; Homo sapiens, MV4-11, 168 h): 220 nM | Ki (WDR5; [3]): 0.15 nM

Cc1ccnc(C(NC(=O)c2cc(Cn3ccn(C)c3=N)cc(-c3ccc(F)cc3OC(F)F)c2)C2CC2)c1 (centres unmarked) [Example 71, N-(Cyclopropyl(4-methylpyridin-2-yl)methyl)-2′-(difluoromethoxy)-4′-fluoro-5-((2-imino-3-methyl-2,3-dihydro-1H-imidazol-1-yl)methyl)-[1,1′-biphenyl]-3-carboxamide]
GI50 ([1]; Homo sapiens, MV4-11, 168 h): 1900 nM | Ki (WDR5; [3]): 0.33 nM

COc1cc([C@@H](NC(=O)c2cc(Cn3ccn(C)c3=N)cc(-c3cn(C)nc3C(F)(F)F)c2)C2CC2)ccc1F [Example 207]
GI50 ([1]; Homo sapiens, MV4-11, 168 h): < 100 nM | Ki (WDR5; [3]): < 0.1 nM

COc1cc(CNC(=O)c2cc(Cn3ccn(C)c3=N)cc(-c3ccc(F)cc3C(F)(F)F)c2F)cc(OC)c1 [Example 108, N-(3,5-Dimethoxybenzyl)-2,4′-difluoro-5-((2-imino-3-methyl-2,3-dihydro-1H-imidazol-1-yl)methyl)-2′-(trifluoromethyl)-[1,1′-biphenyl]-3-carboxamide]
GI50 ([1]; Homo sapiens, MV4-11, 168 h): 310 nM | Ki (WDR5; [3]): < 0.1 nM

CC(=O)/N=c1\n(C)ccn1Cc1cc(C(=O)NCc2ccc(Cl)c(Cl)c2)cc(-c2ccc(F)nc2C)c1 [Example 121, (E)-3-((2-(acetylimino)-3-methyl-2,3-dihydro-1H-imidazol-1-yl)methyl)-N-(3,4-dichlorobenzyl)-5-(6-fluoro-2-methylpyridin-3-yl)benzamide]
GI50 ([1]; Homo sapiens, MV4-11, 168 h): 5900 nM | Ki (WDR5; [2]): > 33 nM

Cc1cc(CNC(=O)c2cc(Cn3ccn(C)c3=N)cc(-c3c(C)cc(F)cc3F)c2)ccc1Cl [Example 53, N-(4-Chloro-3-methylbenzyl)-2′,4′-difluoro-5-((2-imino-3-methyl-2,3-dihydro-1H-imidazol-1-yl)methyl)-6′-methyl-[1,1′-biphenyl]-3-carboxamide]
GI50 ([1]; Homo sapiens, MV4-11, 168 h): 580 nM | Ki (WDR5; [3]): 0.56 nM

3-(1-Ethyl-3-(trifluoromethyl)-1H-pyrazol-4-yl)-5-((2-iminooxazolidin-3-yl)methyl)-N-(1-methyl-6-oxo-1,6-dihydropyridin-3-yl)methyl)benzamide [Example 293]
GI50 [1]: 480 nM | Ki (WDR5; [2]): 0.54 nM

Cn1ccn(Cc2cc(C(=O)NC(CC(=O)O)c3ccc(Cl)c(Cl)c3)nc(-c3ccc(F)cc3C(F)(F)F)c2)c1=N (centres unmarked) [Example 104, 3-(3,4-Dichlorophenyl)-3-(6-(4-fluoro-2-(trifluoromethyl)phenyl)-4-((2-imino-3-methyl-2,3-dihydro-1H-imidazol-1-yl)methyl)picolinamido)propanoic acid]
GI50 ([1]; Homo sapiens, MV4-11, 168 h): 14000 nM | Ki (WDR5; [3]): 0.13 nM

CCn1cc(-c2cc(CN3CCN(C)C3=N)cc(C(=O)N[C@H](c3ccc(F)c(C)c3)C3CC3)c2)c(C(F)(F)F)n1 [Example 212, (S)—N-(Cyclopropyl(4-fluoro-3-methylphenyl)methyl)-3-(1-ethyl-3-(trifluoromethyl)-1H-pyrazol-4-yl)-5-((2-imino-3-methylimidazolidin-1-yl)methyl)benzamide]
GI50 ([1]; Homo sapiens, MV4-11, 168 h): < 100 nM | Ki (WDR5): < 0.1 nM

Cc1cc(F)cc(F)c1-c1cc(Cn2ccn(C)c2=N)cc(C(=O)NCc2ccc(Cl)c(Cl)c2)c1 [Example 28, N-(3,4-Dichlorobenzyl)-2′,4′-difluoro-5-((2-imino-3-methyl-2,3-dihydro-1H-imidazo-1-yl)methyl)-6′-methyl-[1,1′-biphenyl]-3-carboxamide]
GI50 ([1]; Homo sapiens, MV4-11, 168 h): 1300 nM | Ki (WDR5; [3]): 0.35 nM

COc1cc(OC)cc(C(C)NC(=O)c2cc(Cn3ccn(C)c3=N)cc(-c3ccc(F)cc3C)n2)c1 (centres unmarked) [Example 355, N-(1-(3,5-Dimethoxyphenyl)ethyl)-6-(4-fluoro-2-methylphenyl)-4-((2-imino-3-methyl-2,3-dihydro-1H-imidazol-1-yl)methyl)picolinamide]
GI50 ([1]; Homo sapiens, MV4-11, 168 h): 1190 nM | Ki (WDR5; [3]): 3.57 nM

COc1cc(CNC(=O)c2cc(Cn3ccn(C)c3=N)cc(-c3c(C)cc(F)cc3C)c2)cc(OC)c1 [Example 65, N-(3,5-dimethoxybenzyl)-4′-fluoro-5-((2-imino-3-methyl-2,3-dihydro-1H-imidazol-1-yl)methyl)-2′,6′-dimethyl-[1,1′-biphenyl]-3-carboxamide]
GI50 ([1]; Homo sapiens, MV4-11, 168 h): 300 nM | Ki (WDR5; [3]): 0.63 nM

Cn1cc(-c2cc(Cn3ccn(C)c3=N)cc(C(=O)N[C@H](c3ccc(Cl)c(Cl)c3)C3CC3)c2)c(C(F)(F)F)n1 [Example 157, (S)—N-(Cyclopropyl(3,4-dichlorophenyl)methyl)-3-((2-imino-3-methyl-2,3-dihydro-1H-imidazol-1-yl)methyl)-5-(1-methyl-3-(trifluoromethyl)-1H-pyrazol-4-yl)benzamide]
GI50 [1]: 100 nM | Ki (WDR5; [3]): < 0.1 nM

Cn1ccn(Cc2cc(C(=O)N[C@H](c3ccc(F)c(F)c3)C3CC3)cc(-c3cccnc3C(F)(F)F)c2)c1=N [Example 189, (S)—N-(Cyclopropyl(3,4-difluorophenyl)methyl)-3-((2-imino-3-methyl-2,3-dihydro-1H-imidazol-1-yl)methyl)-5-(2-(trifluoromethyl)pyridin-3-yl)benzamide]
GI50 ([1]; Homo sapiens, MV4-11, 168 h): 120 nM | Ki (WDR5; [3]): < 0.1 nM

Cc1cc(C(C)NC(=O)c2cc(Cn3ccn(C)c3=N)cc(-c3ccc(F)cc3C)n2)ncc1Cl (centres unmarked) [Example 55, N-(1-(5-Chloro-4-methylpyridin-2-yl)ethyl)-6-(4-fluoro-2-methylphenyl)-4-((2-imino-3-methyl-2,3-dihydro-1H-imidazol-1-yl)methyl)picolinamide]
GI50 ([1]; Homo sapiens, MV4-11, 168 h): 1800 nM | Ki (WDR5; [3]): 1.8 nM

Cn1ccn(Cc2cc(C(=O)NC3(c4cccc(Br)c4)CCC3)c(F)c(-c3ccc(F)cc3C(F)(F)F)c2)c1=N [Example 186, N-(1-(3-Bromophenyl)cyclobutyl)-2,4′-difluoro-5-((2-imino-3-methyl-2,3-dihydro-1H-imidazol-1-yl)methyl)-2′-(trifluoromethyl)-[1,1′-biphenyl]-3-carboxamide]
GI50 ([1]; Homo sapiens, MV4-11, 168 h): 580 nM | Ki (WDR5; [3]): < 0.1 nM

Cc1ncccc1-c1cc(Cn2ccn(C)c2=N)cc(C(=O)NC(C2CC2)C2CC2)c1 [Example 39, N-(Dicyclopropylmethyl)-3-((2-imino-3-methyl-2,3-dihydro-1H-imidazol-1-yl)methyl)-5-(2-methylpyridin-3-yl)benzamide]
GI50 ([1]; Homo sapiens, MV4-11, 168 h): 30000 nM | Ki (WDR5; [3]): 17 nM

COc1cc(OC)cc(C(NC(=O)c2cc(Cn3ccn(C)c3=N)cc(-c3ccnn3C(C)C)c2)C2CC2)c1 (centres unmarked) [Example 118, N-(Cyclopropyl(3,5-dimethoxyphenyl)methyl)-3-((2-imino-3-methyl-2,3-dihydro-1H-imidazol-1-yl)methyl)-5-(1-isopropyl-1H-pyrazol-5-yl)benzamide]
GI50 ([1]; Homo sapiens, MV4-11, 168 h): 6300 nM | Ki (WDR5; [3]): 0.83 nM

Reference: US10844044B2 (Vanderbilt University, priority 2018, dated 2020)
